Patent publication US12559495B2 (Agency for Science, Technology and Research, priority 2013, dated 2026)

Key:
Format in all cases: cell-based
[1] = system: HEK293-STF3A cells; assay: STF3A assay (luciferase reporter); settings: Homo sapiens, 24 h, 1 day of treatment
Outline: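 HEK293 cells stably carrying the STF luciferase reporter and expressing Wnt3A, seeded at 2×10^4 cells/well and grown overnight. Serially diluted compound (final 50 μM to 1.5 nM) applied for 1 day at 37 °C. Steady-Glo luciferase luminescence read after 10 min at room temperature.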

[2] = system: p-LRP6 (Ser1490); assay: Phospho-LRP6 assay, time course, PA-1 teratocarcinoma cells
Method: FIGS. 3A-3B show the time-course of p-LRP6 (Ser 1490) inhibition (in vitro) induced by porcupine inhibitors. FIG. 3A is a Western blot analysis of PA-1 teratocarcinoma cells treated with 2 μM of Compound 5, for the time points indicated with antibodies as indicated on the left. As a control, cells treated with either growth medium alone or the vehicle (DMSO) for 48 h were included. FIG. 3B is a densitometric analysis of pLRP6 relative to total LRP6.
The present target efficacy biomarker assay measures a decrease in levels of p-LRP6 (i.e. phosphorylated LRP-6) (Ser1490) upon treatment with a porcupine inhibitor (Compound 5). […] The inhibitory effect remains up to 72 h (data not shown) in the presence of the compound and up to 12 h after the compound has been removed (data not shown).

[3] = system: p-LRP6 (Ser1490); assay: Phospho-LRP6 assay, dose titration, HPAF-II pancreatic adenocarcinoma cells
Method: FIGS. 4A-4B show pLRP6 in vitro inhibition-dose titration. FIG. 4A is a Western blot analysis of HPAF-II pancreatic adenocarcinoma cells treated with the indicated doses of Compound 5 for 6 h with antibodies as indicated on the left. The […] controls are a cell lysate of untreated STF3A cells and cells treated with vehicle only (DMSO). FIG. 4B is a densitometric analysis of pLRP6 relative to total LRP6.
While 2 μM led to 50-60% inhibition after 6 h of in vitro treatment, 3.3 nM of Compound 5 still inhibited p-LRP6 (Ser1490) by about 20% in this assay (FIG. 4).

| SMILES | IC50 [1] [nM] | also measured |
| --- | --- | --- |
| Cn1c(=O)c2c(ncn2CC(=O)Nc2ccc(-c3ccccc3)nn2)n(C)c1=O [Compound 5, 2-(1,3-dimethyl-2,6-dioxo-1,2,3,6-tetrahydro-7H-purin-7-yl)-N-(6-phenylpyridazin-3-yl)acetamide] | < 100 | reduction in p-LRP6 ([2]; 2 μM, from 4 h onwards, in vitro (FIG. 3)): greater than 50%; duration of inhibitory effect after the compound has been removed ([2]; data not shown): up to 12 h; duration of inhibitory effect in the presence of the compound ([2]; data not shown): up to 72 h; inhibition at 0.0033 µM ([3]; Homo sapiens, HPAF-II, 3.3 nM, 6 h (FIG. 4)): ~20%; inhibition at 2 µM ([3]; Homo sapiens, HPAF-II, 2 μM, after 6 h of in vitro treatment (FIG. 4)): 50 to 60%; inhibition of p-LRP6 ([3]; concentrations lower than 3.3 nM, HPAF-II cells (data not shown)): did not inhibit |
| Cn1c(=O)c2c(ncn2CC(=O)Nc2ccc(N3CCN(C(=O)c4ccc(Cl)cc4)CC3)cn2)n(C)c1=O [Compound 49, N-(5-(4-(4-chlorobenzoyl)piperazin-1-yl)pyridin-2-yl)-2-(1,3-dimethyl-2,6-dioxo-2,3-dihydro-1H-purin-7(6H)-yl)acetamide] | < 1000 |  |
| Cc1ccccc1-c1ccc(NC(=O)Cn2cnc3c2c(=O)n(C)c(=O)n3C)cc1 [Compound 28, 2-(1,3-dimethyl-2,6-dioxo-2,3-dihydro-1H-purin-7(6H)-yl)-N-(2′-methylbiphenyl-4-yl)acetamide] | > 10000 |  |
| C[C@H](C(=O)Nc1ccc(-c2ccsc2)cc1)n1cnc2c1c(=O)n(C)c(=O)n2C [Compound 58, (R)-2-(1,3-dimethyl-2,6-dioxo-2,3-dihydro-1H-purin-7(6H)-yl)-N-(4-(thiophen-3-yl)phenyl)propanamide] | > 10000 |  |
| Cn1c(=O)c2c(ncn2CC(=O)Nc2ccc(-c3cccnc3)cc2)n(C)c1=O [Compound 26, 2-(1,3-dimethyl-2,6-dioxo-2,3-dihydro-1H-purin-7(6H)-yl)-N-(4-(pyridin-3-yl)phenyl)acetamide] | < 100 |  |
| Cc1nc2c(c(=O)n(C)c(=O)n2C)n1[C@@H](C)C(=O)Nc1ccc(-c2nccs2)cc1 [Compound 67, (S)—N-(4-(thiazol-2-yl)phenyl)-2-(1,3,8-trimethyl-2,6-dioxo-2,3-dihydro-1H-purin-7(6H)-yl)propanamide] | < 1000 |  |
